Measurements published in publication PMC8707586, “New Inhibitors of Laccase and Tyrosinase by Examination of Cross-Inhibition between Copper-Containing Enzymes” (International Journal of Molecular Sciences, 2021).

Tests used:
A. oryzae laccase [1] = assay: Enzyme inhibitory kinetics, A. oryzae laccase; assay type: biochemical, Aspergillus oryzae; settings: read-out: ** Ki, simulated inhibitory constant by nonlinear fitting assuming competitive inhibition
Protocol: (§1) Enzyme inhibitory kinetics—The velocities during the generation of the product for each enzyme were measured by varying the substrate and inhibitor concentrations. Simultaneous and nonlinear fitting of all profiles in an inhibitor minimized the Χ^2 value of the differences of theoretical and experimental values in the Michaelis–Menten equation, expressed with the competitive, uncompetitive, noncompetitive, and mixed models. […] The reduced Χ^2 values between the models were compared based on F-statistic to select the most appropriate model. All fittings and statistical analyses were conducted using MATLAB from MathWorks (Natick, MA, USA).

laccases [2] = assay: Enzyme inhibitory kinetics, laccases from both sources together; assay type: biochemical, T. versicolor and A. oryzae; settings: nonlinear fitting of enzyme kinetics
Protocol: as §1

laccases [3] = assay: Laccase activity assay, statements on both laccases together; assay type: biochemical, T. versicolor and A. oryzae; settings: 50 μM
Protocol: (§2) Enzyme activity with inhibitors—All chemical reagents were purchased from either Tokyo Chemical Industry (Tokyo, Japan), ChemBridge (San Diego, CA, USA), or Sigma-Aldrich (St. Louis, MO, USA). The reaction mixture for the tyrosinase assay comprised 20 nM tyrosinase and 500 µM L-DOPA in phosphate-buffered saline. The solution for the ceruloplasmin activity assay comprised 20 nM ceruloplasmin and 500 µM N,N-dimethyl-p-phenylenediamine (DMPD) in 100 mM of sodium acetate buffer at a pH of 5.5. The DBH activity assay was conducted in a reaction mixture containing 10 nM DBH, 500 µM DMPD, and 500 µM tyramine. The solution for the laccase activity assay comprised either 150 nM T. versicolor laccase or 350 nM A. oryzae laccase and 500 µM L-DOPA in 100 mM sodium phosphate buffer with a pH of 5.5. All the solutions included 0.01% Triton X-100 and 5% DMSO in the absence or presence of the inhibitor. After the addition of inhibitors, the solutions were incubated for 15 min at 30 °C. The absorbances of tyrosinase, laccase, ceruloplasmin, and DBH were measured at 475, 475, 550, and 515 nm, respectively, after the addition of substrate to the mixture solution, in a time-dependent manner. […] The Cheng–Prusoff equation with Km was employed to convert the IC50 value into the inhibitory constant, Ki, for each inhibitor [46].

A. oryzae laccase [4] = assay: Laccase activity assay (L-DOPA substrate), A. oryzae; assay type: biochemical, Aspergillus oryzae; settings: Ki from IC50 by Cheng–Prusoff, 0.01% Triton X-100
Protocol: as §2

mushroom tyrosinase [5] = target: T1, mushroom tyrosinase (Agaricus bisporus, UniProt C7FF04); assay: Tyrosinase enzyme activity assay (L-DOPA substrate); assay type: biochemical
T1 sequence (C7FF04 1-392): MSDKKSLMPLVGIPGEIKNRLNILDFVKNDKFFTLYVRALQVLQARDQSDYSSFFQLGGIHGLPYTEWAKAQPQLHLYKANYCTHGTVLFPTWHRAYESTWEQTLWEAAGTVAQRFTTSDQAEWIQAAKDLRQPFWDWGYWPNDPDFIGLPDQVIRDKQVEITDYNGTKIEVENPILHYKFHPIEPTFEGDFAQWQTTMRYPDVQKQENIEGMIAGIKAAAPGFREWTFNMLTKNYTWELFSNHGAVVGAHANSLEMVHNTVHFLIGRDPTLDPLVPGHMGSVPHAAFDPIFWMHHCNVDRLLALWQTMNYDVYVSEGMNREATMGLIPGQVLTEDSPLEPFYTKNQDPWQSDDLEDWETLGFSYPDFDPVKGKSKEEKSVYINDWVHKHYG
Protocol: as §2

mushroom tyrosinase [6] = target: T1, mushroom tyrosinase; design: method as in PMID 24074025; settings: cited from earlier work
[7] = target: T2, dopamine-β-hydroxylase (DBH) (Homo sapiens, UniProt P09172); assay: DBH activity assay (DMPD, tyramine); assay type: biochemical; settings: for Ki: Ki from IC50 by Cheng–Prusoff
T2 construct: purchased
T2 sequence (P09172 1-617): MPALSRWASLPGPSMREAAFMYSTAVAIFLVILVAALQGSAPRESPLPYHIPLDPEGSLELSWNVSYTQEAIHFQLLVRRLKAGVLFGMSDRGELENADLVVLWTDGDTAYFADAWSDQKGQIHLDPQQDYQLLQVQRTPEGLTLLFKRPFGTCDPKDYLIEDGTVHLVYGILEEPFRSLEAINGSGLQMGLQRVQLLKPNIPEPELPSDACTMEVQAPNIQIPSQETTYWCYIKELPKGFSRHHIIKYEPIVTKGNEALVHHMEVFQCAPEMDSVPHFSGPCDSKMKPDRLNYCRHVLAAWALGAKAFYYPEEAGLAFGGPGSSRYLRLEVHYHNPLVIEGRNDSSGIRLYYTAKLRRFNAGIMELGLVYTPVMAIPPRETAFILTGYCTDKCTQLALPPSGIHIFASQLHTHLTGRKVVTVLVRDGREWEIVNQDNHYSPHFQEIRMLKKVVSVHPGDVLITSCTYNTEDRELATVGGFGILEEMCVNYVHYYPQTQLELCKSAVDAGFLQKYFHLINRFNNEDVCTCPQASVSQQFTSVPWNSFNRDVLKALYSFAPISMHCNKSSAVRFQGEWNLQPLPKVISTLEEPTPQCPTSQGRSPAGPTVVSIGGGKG
Protocol: as §2

T. versicolor laccase = target: T3, T. versicolor laccase (Trametes versicolor, UniProt Q12718); assay: Laccase activity assay (L-DOPA substrate), T. versicolor; assay type: biochemical; settings: Ki from IC50 by Cheng–Prusoff, 0.01% Triton X-100
T3 sequence (Q12718 21-519): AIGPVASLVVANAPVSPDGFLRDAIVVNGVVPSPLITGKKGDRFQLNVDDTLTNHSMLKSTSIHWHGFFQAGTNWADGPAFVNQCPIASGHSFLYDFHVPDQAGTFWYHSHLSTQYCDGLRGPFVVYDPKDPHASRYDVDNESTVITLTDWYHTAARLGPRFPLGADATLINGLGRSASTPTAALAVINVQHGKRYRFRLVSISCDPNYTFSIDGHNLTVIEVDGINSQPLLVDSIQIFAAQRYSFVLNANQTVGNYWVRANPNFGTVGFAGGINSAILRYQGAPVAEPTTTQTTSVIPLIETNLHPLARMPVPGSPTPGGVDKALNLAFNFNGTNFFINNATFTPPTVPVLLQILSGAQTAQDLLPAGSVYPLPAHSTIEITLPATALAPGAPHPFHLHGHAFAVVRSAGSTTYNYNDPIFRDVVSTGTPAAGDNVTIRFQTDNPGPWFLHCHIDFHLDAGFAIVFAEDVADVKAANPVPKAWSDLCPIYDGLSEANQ
Protocol: as §2

ceruloplasmin = target: T4, ceruloplasmin (Homo sapiens, UniProt P00450); assay: Ceruloplasmin activity assay (DMPD substrate); assay type: biochemical; settings: Ki from IC50 by Cheng–Prusoff
T4 construct: purchased
T4 sequence (P00450 20-1065): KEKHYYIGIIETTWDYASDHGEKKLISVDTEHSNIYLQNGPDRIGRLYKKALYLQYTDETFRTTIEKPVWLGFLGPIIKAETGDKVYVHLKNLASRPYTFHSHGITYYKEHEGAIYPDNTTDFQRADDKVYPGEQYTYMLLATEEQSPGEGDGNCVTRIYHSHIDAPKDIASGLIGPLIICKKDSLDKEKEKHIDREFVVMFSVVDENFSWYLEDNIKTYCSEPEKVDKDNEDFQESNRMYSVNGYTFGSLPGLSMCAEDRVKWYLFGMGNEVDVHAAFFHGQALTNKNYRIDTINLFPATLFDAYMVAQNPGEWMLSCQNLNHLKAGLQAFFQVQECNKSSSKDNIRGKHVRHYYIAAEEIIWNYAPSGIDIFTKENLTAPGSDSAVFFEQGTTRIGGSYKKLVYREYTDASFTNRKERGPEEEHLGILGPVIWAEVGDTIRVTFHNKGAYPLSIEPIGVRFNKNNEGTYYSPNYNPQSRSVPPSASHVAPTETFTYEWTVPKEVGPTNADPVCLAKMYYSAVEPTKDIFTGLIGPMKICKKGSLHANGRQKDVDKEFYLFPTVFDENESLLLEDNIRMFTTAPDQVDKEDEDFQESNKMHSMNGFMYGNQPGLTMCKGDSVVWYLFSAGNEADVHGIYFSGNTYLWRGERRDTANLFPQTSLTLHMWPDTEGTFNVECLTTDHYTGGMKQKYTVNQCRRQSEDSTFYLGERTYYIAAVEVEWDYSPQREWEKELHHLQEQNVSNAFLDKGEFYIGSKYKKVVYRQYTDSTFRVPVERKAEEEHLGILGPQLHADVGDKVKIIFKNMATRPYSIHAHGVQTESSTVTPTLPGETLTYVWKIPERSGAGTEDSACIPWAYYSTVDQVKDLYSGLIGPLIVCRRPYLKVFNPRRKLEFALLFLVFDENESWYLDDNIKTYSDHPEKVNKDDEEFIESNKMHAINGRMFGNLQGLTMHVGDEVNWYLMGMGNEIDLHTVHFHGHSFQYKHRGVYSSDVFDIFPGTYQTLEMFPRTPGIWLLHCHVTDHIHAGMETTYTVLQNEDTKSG
Protocol: as §2

SMILES	Ki (A. oryzae laccase [1]) [µM]	Mechanism of inhibition (laccases [2])	inhibitory activities against laccases (laccases [3])	Ki (A. oryzae laccase [4]) [µM]	inhibition of DBH activity [7]	Ki [7] [µM]	further results
Cn1cc[nH]c1=S [compound 16, methimazole]	–	–	–	–	–	–	inhibition of DBH at single concentration ([7]; 50 µM): neither methimazole nor other thione-containing test molecules significantly inhibited DBH
NC(=S)Nc1ccccc1 [compound 24, phenylthiourea (PTU)]	–	–	–	> 1000	–	–	–
O=c1cccccc1O [compound 26, tropolone]	–	–	–	> 1000	significantly decreased DBH activity	9.3 ± 5.5	–
[N-]=[N+]=[N-].[Na+] [compound 27, sodium azide]	–	–	–	3.1 ± 1.7	moderate inhibition	70.6 ± 11.6	Ki (T. versicolor laccase): 4.2 ± 1.3 µM; Ki (T. versicolor laccase; listed as sodium azide): 4 µM; Ki (ceruloplasmin): 1.6 ± 0.3 µM; Ki (A. oryzae laccase [4]; listed as sodium azide): 3 µM
[NH4+].[NH4+].[SH-].[SH-].[S]=[Mo]=[S] [compound 28, ammonium tetrathiomolybdate (ATMD)]	–	–	–	10.5 ± 2.5	significantly decreased DBH activity	23.7 ± 2.7	Ki (T. versicolor laccase): 12.3 ± 1.3 µM; Ki (T. versicolor laccase; listed as AMTD): 12 µM; Ki (ceruloplasmin): 10.9 ± 1.4 µM; Ki (A. oryzae laccase [4]; listed as AMTD): 10 µM

The next lines start with results.

Ki (A. oryzae laccase [1]) [µM]	Mechanism of inhibition (laccases [2])	inhibitory activities against laccases (laccases [3])	Ki (A. oryzae laccase [4]) [µM]	SMILES	inhibition of DBH activity [7]	Ki [7] [µM]	further results
17.2	Competitive	substantial inhibitory activities	15.1 ± 4.6	S=c1[nH]cnc2nc[nH]c12 [compound 1, mercaptopurine]	–	–	Mechanism of inhibition (laccases [2]; listed as mercaptopurine): competitive mode; Ki (A. oryzae laccase [4]; listed as mercaptopurine): 15 µM
26.2	Competitive	substantial inhibitory activities	21.2 ± 1.7	Nc1nc2nc[nH]c2c(=S)[nH]1 [compound 2, thioguanine]	–	–	Mechanism of inhibition (laccases [2]; listed as thioguanine): competitive mode; Ki (A. oryzae laccase [4]; listed as thioguanine): 21 µM
32.4	Competitive	substantial inhibitory activities	26.3 ± 2.4	C[C@H](CS)C(=O)N1CCC[C@H]1C(=O)O [compound 11, captopril]	–	–	inhibition of tyrosinase activity (mushroom tyrosinase [5]): inhibits tyrosinase activity; Mechanism of inhibition (laccases [2]; listed as captopril): competitive mode; inhibition of tyrosinase (words, literature) (mushroom tyrosinase [6]): slightly inhibited; Ki (A. oryzae laccase [4]; listed as captopril): 26 µM
–	–	–	> 1000	O=c1cc(CO)occ1O [compound 12, kojic acid]	–	–	–
18	Competitive	substantial inhibitory activities	18.6 ± 3.3	OCC(S)CS (stereo not drawn) [compound 18, dimercaptopropanol]	moderate inhibition	57.9 ± 7.6	Mechanism of inhibition (laccases [2]; listed as dimercaptopropanol): competitive mode; Ki (A. oryzae laccase [4]; listed as dimercaptopropanol): 18 µM
13.1	Competitive	substantial inhibitory activities	37.3 ± 5.6	O=C(O)C(S)C(S)C(=O)O (stereo not drawn) [compound 19, dimercaptosuccinate]	–	–	Mechanism of inhibition (laccases [2]; listed as dimercaptosuccinate): competitive mode; Ki (A. oryzae laccase [4]; listed as dimercaptosuccinate): 37 µM
